Measurements published in patent US20070274947A1, “Antisense Oligonucleotides Directed to Ribonucleotide Reductase R1 and Uses Thereof in the Treatment of Cancer” (priority 2003, published 2007).

How the values were obtained:
[1] = system: HT-29 human colon cancer cells; test: HT-29 colon tumor growth in CD-1 nude mice; assay type: in vivo; conditions: SEQ ID NO:1 10 mg/kg every other day
Description: A. HT-29 human colon cancer cells (3×10^6 cells in 100 μl of PBS) were subcutaneously injected into the right flank of 6-7 weeks old female CD-1 nude mice. After the size of tumor reached an approximate volume of 50 mm^3, 4 days post tumor cell injection, SEQ ID NO:1 was administered by bolus infusion into the tail vein every other day at 10 mg/kg. Control animals received saline alone for the same period. Antitumor effect of SEQ ID NO:1 was further compared to that of mitomycin C alone or that of SEQ ID NO:1 in combination with mitomycin C. Mitomycin C was administered intravenously at days 4, 11 and 18 with a dose of 3.5 mg/kg/week, one hour after the treatments with SEQ ID NO:1. All treatments were stopped at day 22. A day after the last treatment, tumors were excised from the animals and their weights were measured (FIG. 13A). […] The delay in tumor growth achieved with SEQ.
B. HT-29 human colon cancer cells (3×10^6 cells in 100 μl of PBS) were subcutaneously injected into the right flank of 5-6 week old female CD-1 nude mice. After the size of tumor reached an approximate volume of 100 mm^3, 7 days post tumor cell injection, SEQ ID NO:1 was administered by bolus infusion into the tail vein every other day at 10 mg/kg. Control animals received saline alone for the same period. Antitumor effect of SEQ ID NO:1 was further compared to that of CPT-11 alone or that of SEQ ID NO:1 in combination with CPT-11. CPT-11 was administered intraperitoneally for 5 days in a row from day 7-12 with a dose of 20 mg/kg in 100 μl saline. All treatments were stopped at day 32. A day after the last treatment, tumors were excised from the animals and their weights were measured (FIG. 13B).

[2] = system: MDA-CDDP-S4 human in vivo-selected Cisplatin-resistant breast adenocarcinoma cells; test: Cisplatin-resistant breast adenocarcinoma MDA-CDDP-S4 growth in SCID mice; conditions: SCID mice, fat pad; SEQ ID NO:1 10 mg/kg every other day; Cisplatin 4 mg/kg, Taxol 10 mg/kg i.v. weekly for three weeks
Description: MDA-CDDP-S4 human in vivo-selected Cisplatin-resistant breast adenocarcinoma cells MDA231/CDDPs4) (4×10^6 cells in 100 μl of PBS) were injected into the fat pad (inside of right leg) of 6-7 weeks old female SCID mice. After the size of tumor reached an approximate volume of 100 mm^3, 7-9 days post tumor cell injection, SEQ ID NO:1 was administered by bolus infusion into the tail vein every other day at 10 mg/kg. Control animals received saline alone for the same period. Antitumor effect of SEQ ID NO:1 was further compared to that of Cisplatin or Taxol alone (FIG. 14A) and in combination as indicated in the FIGS. 14B, 14C and 14D. Cisplatin was administered intravenously once a week for three weeks at a dose of 4 mg/kg. Taxol was administered intravenously once a week for three weeks at a dose of 10 mg/kg. Antitumor activities were estimated by the inhibition of tumor volume, which was measured with caliper and each point represents mean tumor volume calculated from 10 animals per experimental group (FIG. 14C). At the end of the study animals were sacrificed, tumor weights taken and mean tumor weights are indicated. […] As expected, treatment with Cisplatin during the same period was ineffective against Cisplatin-resistant tumor.

[3] = system: MDA-MB435-To.1 human Taxol-resistant breast adenocarcinoma cells; test: Taxol-resistant breast adenocarcinoma MDA-MB435-To.1 growth in SCID mice; assay type: in vivo
Description: MDA-MB435-To.1 human Taxol-resistant breast adenocarcinoma cells (4×10^6 cells in 100 μl of PBS) were injected into the fat pad (inside of right leg) of 6-7 weeks old female SCD mice. After the size of tumor reached an approximate volume of 100 mm^3, 20 days post tumor cell injection, SEQ ID NO:1 was administered by bolus infusion into the tail vein every other day at 10 mg/kg 15 times. Control animals received saline alone for the same period. Antitumor effect of SEQ ID NO:1 was further compared to that of Cisplatin or Taxol alone (FIG. 15A). Cisplatin was administered intravenously once a week for four weeks at a dose of 4 mg/kg. Taxol was administered intravenously once a week for four weeks at a dose of 20 mg/kg. Antitumor activities were estimated by the inhibition of tumor volume, which was measured with caliper (FIG. 15B). Each point represents mean tumor volume calculated from 9-10 animals per experimental group. […] As expected, treatment with Taxol during the same period was ineffective against Taxol-resistant tumor.
MDA-MB435-To.1 human Taxol-resistant breast adenocarcinoma cells (4×10^6 cells in 100 μl of PBS) were injected into the fat pad (inside of right leg) of 6-7 weeks old female CB-17 SCID mice. After the size of tumor reached an approximate volume of 100 mm^3, 17 days post tumor cell injection, SEQ ID NO:1 was administered by bolus infusion into the tail vein every other day at 10 mg/kg. Control animals received saline alone for the same period. Antitumor effect of SEQ ID NO:1 was compared to that of Cisplatin alone and in combination. Cisplatin was administered intravenously once a week for four weeks at a dose of 4 mg/kg. Antitumor activities were estimated by the inhibition of tumor volume, which was measured with caliper (FIG. 15B). Each point represents mean tumor volume calculated from 10 animals per experimental group. At the end of the study the animals were sacrificed and tumors weighed (FIG. 15C).

[4] = system: Human taxol-resistant promyelocytic leukemia cells (HL-60); test: Taxol-resistant promyelocytic leukemia (HL-60) growth in SCID mice; assay type: in vivo; conditions: SEQ ID NO:1 10 mg/kg i.v. every other day, taxol 10 mg/kg i.p. once a week
Description: Human taxol-resistant promyelocytic leukemia cells (HL-60) (7×10^6 cells in 100 μl of PBS) were injected into the right flank of 6-7 weeks old female SCID mice. After the size of tumor reached an approximate volume of 100 mm^3, 10 days post tumor cell injection, SEQ ID NO:1 was administered by bolus infusion into the tail vein every other day at 10 mg/kg. Control animals received saline alone for the same period. The anti-tumor effect of SEQ ID NO:1 was further compared to that of taxol. Taxol was administered i.p. once a week at a dose of 10 mg/kg. Anti-tumor activity was estimated by the inhibition of tumor volume, which was measured with caliper (FIG. 17A). Each point represents mean tumor volume calculated from 10 animals per experimental group. In addition animals were sacrificed and tumor weights taken at the end of the study.

[5] = system: DU145 human prostatic cancer cells; test: DU145 prostate tumor growth in SCID mice; assay type: in vivo
Description: DU145 human prostatic cancer cells (1×10^7 cells in 100 μl of PBS) were subcutaneously injected into the right flank of 6-7 week old male SCID mice. After the size of the tumors reached an approximate volume of 50 mm^3, 13 days post tumor cell injection, SEQ ID NO:1 was administered by bolus infusion into the tail vein every other day at 10 mg/kg. Control animals received saline alone for the same period. Treatments lasted for 30 days thereafter. Antitumor activities were estimated by the inhibition of tumor volume, which was measured with a caliper on nine different occasions over 30-day period. Each point represents mean tumor volume calculated from 5 animals per experimental group.
In both experiments, DU145 human prostatic cancer cells (1×10^7 cells in 100 μl of PBS) were subcutaneously injected into the right flank of 6-7 weeks old male SCID mice. After the size of tumor reached an approximate volume of 50 mm^3, 13 (upper panel) or 11 (lower panel) days post tumor cell injection, SEQ ID NO:1 was administered by bolus infusion into the tail vein every other day at 10 mg/kg 15 times (upper panel) or 14 times (lower panel), respectively. Control animals received saline alone for the same period. Antitumor effect of SEQ ID NO:1 was further compared to that of mitoxantrone (novantrone®) alone or in combination. Mitoxantrone was administered intravenously once at the beginning of the treatments at a dose of 2 mg/kg (upper panel) or once a week for four weeks at a reduced dose of 0.8 mg/kg (lower panel). All treatments were stopped at day 42 (upper panel) or 38 (lower panel), respectively. A day after the last treatment, tumors were excised from the animals and their weights were measured.

[6] = first experiment, start 20 days post injection, SEQ ID NO:1 10 mg/kg 15 times, Cisplatin 4 mg/kg, Taxol 20 mg/kg weekly for four weeks

SMILES: CO[C@@]12[C@H](COC(N)=O)C3=C(C(=O)C(C)=C(N)C3=O)N1C[C@@H]1N[C@@H]12 [mitomycin C, reference compound]
- tumor weight / tumor growth ([1]; FIG. 13A, mitomycin C 3.5 mg/kg/week i.v., stopped day 22): inhibitory effects

SMILES: CC(=O)O[C@H]1C(=O)[C@@]2(C)[C@H]([C@H](OC(=O)c3ccccc3)[C@]3(O)C[C@H](OC(=O)[C@H](O)[C@@H](NC(=O)c4ccccc4)c4ccccc4)C(C)=C1C3(C)C)[C@]1(OC(C)=O)CO[C@@H]1C[C@@H]2O [Taxol, Paclitaxel, reference compound]
- tumor weight / tumor growth [2]: inhibitory effects
- tumor weight / tumor growth [3, 6]: ineffective
- tumor growth / tumor weight [4]: no effect on tumor growth or weight

SMILES: N.N.[Cl][Pt][Cl] [Cisplatin, reference compound]
- tumor weight / tumor growth [2]: ineffective
- tumor weight / tumor growth [3, 6]: inhibitory effects
- tumor weight / tumor growth ([3]; second experiment, CB-17 SCID mice, start 17 days post injection, SEQ ID NO:1 10 mg/kg every other day, Cisplatin 4 mg/kg weekly): inhibitory effects

SMILES: CCc1c2c(nc3ccc(OC(=O)N4CCC(N5CCCCC5)CC4)cc13)-c1cc3c(c(=O)n1C2)COC(=O)[C@]3(O)CC [CPT-11, Irinotecan, reference compound]
- tumor weight / tumor growth ([1]; FIG. 13B, CPT-11 20 mg/kg i.p. 5 days, stopped day 32): inhibitory effects

SMILES: O=C1c2c(O)ccc(O)c2C(=O)c2c(NCCNCCO)ccc(NCCNCCO)c21 [mitoxantrone, reference compound]
- tumor weight / tumor growth ([5]; lower panel FIG. 2, SEQ ID NO:1 10 mg/kg every other day 14 times, mitoxantrone 0.8 mg/kg once a week for four weeks): delay of tumor growth
- tumor weight / tumor growth ([5]; upper panel FIG. 2, SEQ ID NO:1 10 mg/kg every other day 15 times, mitoxantrone 2 mg/kg i.v. once, vs saline): inhibitory effects
